Test results reported in US20200262991A1, “Method for Tuning Topology of Polymer Particles” (UNIVERSITY OF SOUTH CAROLINA, priority 2019, published 2020).

Test system: 3T3-L1 adipocytes
Experiment: Oil Red O lipid content assay in differentiated 3T3-L1 adipocytes
Format: cell-based, mouse
Conditions: 60 μM free resveratrol dissolved in ethanol, 48 hours
Experimental: 3T3-L1 fibroblasts (ATCC), were differentiated into adipocytes following ATCC's protocol, with slight modifications. Briefly, 3T3-L1 cells were seeded in 6 well plates at 80,000 cells/well and cultured in DMEM supplemented with 10% SuperCalf Serum and 1% Pen/Strep. 48 hours after confluence was reached, media was exchanged with “differentiation media” consisting of DMEM supplemented with 10% FBS, 10 μg/mL bovine insulin, 0.25 μM dexamethasone, and 0.5 mM IBMX. 48 hours after differentiation media was added, media was exchanged for DMEM supplemented with 10% FBS and 10 μg/mL bovine insulin. After another 48 hours, media was exchanged for DMEM supplemented with 10% FBS. Cells were then cultured until treatment with particles, which occurred 9 days after exposure to the differentiation media. […] Absorbance of extracted Oil Red O was measured at 500 nm using a spectrophotometer. Bioactivity of the resveratrol following the fabrication process was determined. Specifically, the ability of the resveratrol particles to induce lipolysis in differentiated 3T3-L1 adipocytes was determined by measuring lipid content with an Oil Red O assay. […] Lipid content was visualized with Oil Red O, a lipophilic dye, (FIG. 3 at A-F) and lipid content was quantified by extracting the dye (FIG. 3 at G) and measuring the solution's absorbance (FIG. 3 at H).

## Oc1ccc(/C=C/c2cc(O)cc(O)c2)cc1 [resveratrol, 3,5,4′-trihydroxy-trans-stilbene]
  Oil Red O staining (intracellular lipid content): decreased Oil Red O staining
